Laboratory results as given in article PMC3231940, “Disposition, metabolism and mass balance of [^14C]apremilast following oral administration” (Xenobiotica; the Fate of Foreign Compounds in Biological …, 2011).

Key:
[1] = Total radioactivity pharmacokinetics in plasma and whole blood; assay type: in vivo, human; settings: single oral 20-mg dose
Protocol: Each subject was administered a single oral suspension of 20 mg (100 μCi) of [^14C] apremilast in distilled water (240mL total volume). Subjects were fasted for 8 h prior to and 4 h following dose administration. The residual radioactivity in the dosing vials was determined and accounted for approximately 0.3% of the total radioactivity. Dose administration, sample collection, sample processing and determination of total radioactivity were conducted at MDS Pharma Services (Lincoln, NE). Determination of apremilast in plasma, metabolite profiling and metabolite characterization were performed at XenoBiotic Laboratories, Inc. (Plainsboro, NJ).
Urine was collected pre-dose, 0-4, 4-8, 8-12, 12-24 and every 24 h thereafter up to 216h (9 days) following dose administration and was stabilized with one volume of pH 1.5 Sorensen's citrate buffer (25-mM sodium citrate buffer adjusted to pH 1.5). […] Blood (two 5-mL samples for plasma radioactivity counting, a 3-mL sample for whole blood radioactivity counting, a 2-mL sample for apremilast analysis and a 10-mL sample for metabolite profiling) was collected into heparinized tubes at pre-dose, 0.5, 1, 1.5, 2, 2.5, 3, 4, 6, 8, 12, 16, 24, 36, 48, 72, 96, 120, 144 and 168 h following dose administration. Blood samples collected for radioactivity counting were stored at or below -20°C until analysed. […] All urine, faecal homogenates and plasma samples were stored at or below -20°C until analysed.
All radioactivity determinations were performed using a Tri-Carb model 1600TR liquid scintillation counter (PerkinElmer, Wellesley, MA). For plasma and urine analysis, duplicate samples of a known volume were mixed with Ultima Gold XR scintillation cocktail and directly analysed by liquid scintillation counting. […] Using these criteria, the lower limit of quantification in plasma, blood, urine and faeces were 2.07 ng [^14C]apremilast equivalent/mL (ngEq/mL), 2.61 ngEq/g, 1.89 ngEq/mL and 2.52 ngEq/g, respectively. […]

[2] = cited from earlier work
[3] = patients, 20 mg daily for 29 days, capsules, ref Gottlieb et al. 2008

Share of AUC0-∞ for radioactivity in plasma between 0 and 96 h [1]: approximately 90%
Share of AUC0-∞ for radioactivity in plasma from AUC96-∞ [1]: 10%
Plasma total radioactivity Tmax ([1]; median (min-max), listed as [^14C]apremilast): < 2 h
Structure (SMILES): CCOc1cc([C@@H](CS(C)(=O)=O)N2C(=O)c3cccc(NC(C)=O)c3C2=O)ccc1OC [Apremilast, (+)-N-[2-[(lS)-1-(3-ethoxy-4-methoxyphenyl)-2-(methylsulfonyl)ethyl]-1,3-dioxo-2,3-dihydro-lH-isoindol-4-yl]acetamide]
half-life ([2]; patients with severe plaque-type psoriasis, multiple daily doses, ref Gottelieb et al. 2008): 8.2 h
AUC0-24 [2, 3]: 1799 ng·h/mL
Cmax [2, 3]: 207 ng/mL
